Reference: ChEMBL document CHEMBL1134189, “Synthesis and monoamine transporter affinity of 3beta-(4-(2-pyrrolyl)phenyl)-8-azabicycl” (Bioorg Med Chem Lett, 2001)
pIC50, pKi: −log10 of the molar value.

Key:
[1] = target: Sodium-dependent serotonin transporter (Rattus norvegicus, UniProt P31652); test: Displacement of [3H]paroxetine from Serotonin transporter of rat frontal cortex membrane; type: tissue-based
[2] = target: Sodium-dependent dopamine transporter (Rattus norvegicus, UniProt P23977); test: Displacement of [125I]RTI-55 from Dopamine transporter of rat striatal membrane
[3] = target: Monoamine transporters; serotonin & dopamine (Rattus norvegicus) (UniProt P31652+P23977); test: Relative affinity for serotonin and Dopamine transporters; type: protein assay
Chain of Monoamine transporters; serotonin & dopamine (Rattus norvegicus) (P23977 whole entry, looked up): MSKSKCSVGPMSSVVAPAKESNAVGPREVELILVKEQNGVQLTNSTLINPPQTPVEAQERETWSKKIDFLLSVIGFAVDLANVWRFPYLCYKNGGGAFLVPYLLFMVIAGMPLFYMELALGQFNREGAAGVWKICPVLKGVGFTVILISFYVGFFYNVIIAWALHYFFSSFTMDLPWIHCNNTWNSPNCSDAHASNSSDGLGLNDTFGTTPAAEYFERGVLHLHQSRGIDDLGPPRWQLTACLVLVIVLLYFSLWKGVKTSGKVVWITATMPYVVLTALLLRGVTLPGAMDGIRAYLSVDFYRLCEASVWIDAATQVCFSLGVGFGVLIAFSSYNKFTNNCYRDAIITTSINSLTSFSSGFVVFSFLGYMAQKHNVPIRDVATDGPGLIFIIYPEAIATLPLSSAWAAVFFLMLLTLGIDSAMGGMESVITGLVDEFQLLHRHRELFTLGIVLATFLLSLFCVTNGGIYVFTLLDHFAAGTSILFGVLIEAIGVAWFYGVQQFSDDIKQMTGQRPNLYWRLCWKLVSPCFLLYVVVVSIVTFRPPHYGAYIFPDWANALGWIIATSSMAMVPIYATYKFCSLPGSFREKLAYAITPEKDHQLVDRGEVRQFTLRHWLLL
Chain of Monoamine transporters; serotonin & dopamine (Rattus norvegicus) (P31652 whole entry, looked up): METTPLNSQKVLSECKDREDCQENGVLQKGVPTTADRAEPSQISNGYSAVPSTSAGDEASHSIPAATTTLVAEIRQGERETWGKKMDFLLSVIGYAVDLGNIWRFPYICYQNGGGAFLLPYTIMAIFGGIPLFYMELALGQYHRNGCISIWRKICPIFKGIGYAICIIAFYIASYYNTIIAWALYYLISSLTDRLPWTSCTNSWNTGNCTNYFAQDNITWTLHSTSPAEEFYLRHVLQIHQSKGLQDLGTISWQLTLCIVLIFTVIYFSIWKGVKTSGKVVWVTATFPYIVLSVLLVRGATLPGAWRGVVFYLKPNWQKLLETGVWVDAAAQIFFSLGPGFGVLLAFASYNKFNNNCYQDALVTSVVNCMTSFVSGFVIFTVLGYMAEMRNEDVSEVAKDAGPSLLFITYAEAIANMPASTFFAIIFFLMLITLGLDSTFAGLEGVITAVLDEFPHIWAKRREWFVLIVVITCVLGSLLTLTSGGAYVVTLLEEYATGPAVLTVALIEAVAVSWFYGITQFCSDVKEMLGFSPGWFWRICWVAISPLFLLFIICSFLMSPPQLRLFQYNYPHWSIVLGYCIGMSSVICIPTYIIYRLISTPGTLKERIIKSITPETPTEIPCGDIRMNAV

Chain of Sodium-dependent dopamine transporter (P23977 whole entry): as the sequence (P23977 whole entry, looked up) above
Chain of Sodium-dependent serotonin transporter (P31652 whole entry): as the sequence (P31652 whole entry, looked up) above

SMILES	pKi [1]	pIC50 [2]	Ratio [3]
CCOC(=O)C1C(c2ccc(-c3cccn3CC)cc2)CC2CCC1N2C (centres undefined)	6.47	< 6.00	> 2.97
CCOC(=O)C1C(c2ccc(-c3cccn3Cc3ccccc3)cc2)CC2CCC1N2C (centres undefined)	7.23	7.24	0.98
CCOC(=O)C1C(c2ccc3c(ccn3CC)c2)CC2CCC1N2C (centres undefined)	8.26	8.92	0.22
CCOC(=O)C1C2CCC(CC1c1ccc(-c3cccn3CC)cc1)N2 (centres undefined)	7.80	< 6.00	> 63.7
CCOC(=O)C1C(c2ccc3c(ccn3C)c2)CC2CCC1N2C (centres undefined)	8.55	9.12	0.26
CCOC(=O)C1C2CCC(CC1c1ccc(-c3cccn3C)cc1)N2 (centres undefined)	8.98	6.21	585
CCOC(=O)C1C2CCC(CC1c1ccc(-c3ccc(C)n3C)cc1)N2 (centres undefined)	7.31	6.08	16.8
CCOC(=O)C1C2CCC(CC1c1ccc(-c3ccc(-c4ccccc4)n3C)cc1)N2 (centres undefined)	6.95	< 6.00	> 8.93
CCOC(=O)C1C(c2ccc(-c3cccn3C)cc2)CC2CCC1N2C (centres undefined)	7.59	6.15	27.4
CCOC(=O)C1C(c2ccc(-c3c(C)ccn3C)cc2)CC2CCC1N2C (centres undefined)	< 6.00	< 6.00	
CCOC(=O)C1C2CCC(CC1c1ccc3c(ccn3CC)c1)N2 (centres undefined)	8.52	8.63	0.78
CCOC(=O)C1C2CCC(CC1c1ccc(-c3c(C)ccn3C)cc1)N2 (centres undefined)	7.31		
CCOC(=O)C1C2CCC(CC1c1ccc3c(ccn3C)c1)N2 (centres undefined)	8.76	8.56	1.57
CCOC(=O)C1C2CCC(CC1c1ccc(-c3cccn3Cc3ccccc3)cc1)N2 (centres undefined)	8.20	7.49	5.06
